The record followed here is patent publication US8575364B2, “Modulators of serotonin receptor” (Janssen Pharmaceutica NV, priority 2008, dated 2013).

Where a name gives a salt, the structure may show the parent alone.

The target in test [1] is rat 5-HT7 receptors (Rattus norvegicus (Rat), UniProt P32305). The test can be described thus: r5-HT7 competitive radioligand binding assay ([3H]5-CT). The conditions noted are these: membrane fractions of HEK-293 cells recombinantly expressing rat 5-HT7. Here is the method: Compound affinity for the rat 5-HT7 receptor subtype was evaluated by competitive radioligand binding assays using 5-carboxamido[^3H]tryptamine ([^3H]5-CT) (Amersham Biosciences, cat. 90000403) detection. HitHunter™ cAMP assays are in-vitro based competitive immunoassays. […] Cells were pre-incubated with test compounds for 10 minutes. For agonistic testing, the concentration of test compound that produced a half-maximal response is represented by the EC50 value. Compounds were assayed in their free form or as salts, as indicated in the Examples section above.

Test [2] has as its target r5-HT7 receptor (Rattus norvegicus (Rat), UniProt P32305). The test can be described thus: HitHunter cAMP assay, agonistic testing. It counts as cell-based. The conditions noted are these: HEK-293 cells stably transfected with r5-HT7 receptor. The method, then: Receptor binding was performed using membrane fractions prepared from the HEK-293 cell line recombinantly expressing rat 5-HT7 receptors (NCBI accession NM_022938). Compound affinity for the rat 5-HT7 receptor subtype was evaluated by competitive radioligand binding assays using 5-carboxamido[^3H]tryptamine ([^3H]5-CT) (Amersham Biosciences, cat. 90000403) detection. HitHunter™ cAMP assays are in-vitro based competitive immunoassays. The assay was performed on the HEK-293 cell line stably transfected with r5-HT7 receptor. Cells were pre-incubated with test compounds for 10 minutes. For agonistic testing, the concentration of test compound that produced a half-maximal response is represented by the EC50 value. Compounds were assayed in their free form or as salts, as indicated in the Examples section above.
In general terms: cAMP levels reflect the balance of adenylyl cyclase and phosphodiesterase activity.

Sequence of rat 5-HT7 receptors (P32305 1-435): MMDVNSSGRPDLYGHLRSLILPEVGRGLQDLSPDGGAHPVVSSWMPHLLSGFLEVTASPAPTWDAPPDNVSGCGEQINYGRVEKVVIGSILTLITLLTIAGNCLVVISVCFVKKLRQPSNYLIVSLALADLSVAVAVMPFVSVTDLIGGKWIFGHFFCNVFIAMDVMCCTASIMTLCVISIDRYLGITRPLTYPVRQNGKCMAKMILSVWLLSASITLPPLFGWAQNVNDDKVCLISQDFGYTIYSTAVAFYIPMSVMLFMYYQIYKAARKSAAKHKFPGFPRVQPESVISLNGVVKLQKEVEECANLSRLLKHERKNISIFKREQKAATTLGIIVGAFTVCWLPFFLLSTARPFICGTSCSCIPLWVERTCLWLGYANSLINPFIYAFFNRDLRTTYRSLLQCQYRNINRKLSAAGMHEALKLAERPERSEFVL
Sequence of r5-HT7 receptor (P32305 1-435): as above

As for `COc1ccc(-c2ccccc2C)cc1OC1CNC1` [Example 8, 3-(4-Methoxy-2′-methyl-biphenyl-3-yloxy)-azetidine trifluoroacetate], in test [1], the Ki stood at 13.5 nM. Moreover, in test [2], the EC50 was 794 nM.

With `COc1ccc(-c2ccccc2Cl)cc1OC1CNC1` [Example 17, 3-(2′-Chloro-4-methoxy-biphenyl-3-yloxy)-azetidine], the Ki in test [1] came to 4.42 nM. In addition, the EC50 in test [2] is 794 nM. The corresponding values for `COc1ccc(-c2ccccc2C(F)(F)F)cc1OC1CNC1` [Example 1, 3-(4-Methoxy-2′-trifluoromethyl-biphenyl-3-yloxy)-azetidine] are 3.79 nM and 200 nM.

Regarding `COc1ccccc1-c1ccccc1C1CCN(C)C1` (racemic) [Example 62, (±)-3-(2′-Methoxy-biphenyl-2-yl)-1-methyl-pyrrolidine], the Ki in test [1] was found to be 730 nM. On to `COc1ccc(-c2cccc(C)c2C)cc1OC1CNC1` [Example 4, 3-(4-Methoxy-2′,3′-dimethyl-biphenyl-3-yloxy)-azetidine], for which the Ki in test [1] stood at 11 nM. The EC50 in test [2] was 631 nM. For the compound `CCOc1ccc(-c2ccccc2C)cc1OC1CNC1` [Example 32, 3-(4-Ethoxy-2′-methyl-biphenyl-3-yloxy)-azetidine hydrochloride], the Ki in test [1] was 454 nM. Same read-out and setting: the result for `Cc1ccccc1-c1ccc(OC2CCC2)c(OC2CNC2)c1` [Example 34, 3-(4-Cyclobutoxy-2′-methyl-biphenyl-3-yloxy)-azetidine] reads 667 nM; that for `COc1ccc(-c2c(Cl)cccc2C(F)(F)F)cc1OC1CNC1` [Example 10, 3-(2′-Chloro-4-methoxy-6′-trifluoromethyl-biphenyl-3-yloxy)-azetidine trifluoroacetate], 112 nM; that for `COc1ccc(-c2cccc(C(F)(F)F)c2)cc1C1CCNC1` (racemic) [Example 46, (±)-3-(4-Methoxy-3′-trifluoromethyl-biphenyl-3-yl)-pyrrolidine], 117 nM.

Turning to `COc1ccc(-c2cc(C)ccc2C)cc1OC1CNC1` [Example 16, 3-(4-Methoxy-2′,5′-dimethyl-biphenyl-3-yloxy)-azetidine], the Ki in test [1] was determined as 114 nM. Still for that read-out and setting: the same measure for `Clc1ccccc1-c1cccc(OC2CNC2)c1` [Example 21, 3-(2′-Chloro-biphenyl-3-yloxy)-azetidine]: 34.6 nM; for `Cc1ccc(-c2ccccc2C2CCN(C)C2)cc1` (racemic) [Example 55, (±)-1-Methyl-3-(4′-methyl-biphenyl-2-yl)-pyrrolidine]: 430 nM.

Regarding `COc1ccc(-c2cccc(F)c2C)cc1OC1CNC1` [Example 5, 3-(3′-Fluoro-4-methoxy-2′-methyl-biphenyl-3-yloxy)-azetidine], the Ki in test [1] came out at 19 nM. The compound also had an EC50 in test [2] of 1580 nM.

What is called Ki is a dissociation constant, usually derived from enzyme kinetics or from competition with a known ligand. The EC50 is the concentration needed to bring the measured effect to its halfway point. The low end stands for higher potency in that assay, the high end for lower potency in that assay.
